Calls of active or inactive are those of the source. The rule behind the calls is not given here.

The target of data set [1] is T1, Lysosomal acid glucosylceramidase (Homo sapiens, UniProt P04062).
T1 sequence (P04062 whole entry): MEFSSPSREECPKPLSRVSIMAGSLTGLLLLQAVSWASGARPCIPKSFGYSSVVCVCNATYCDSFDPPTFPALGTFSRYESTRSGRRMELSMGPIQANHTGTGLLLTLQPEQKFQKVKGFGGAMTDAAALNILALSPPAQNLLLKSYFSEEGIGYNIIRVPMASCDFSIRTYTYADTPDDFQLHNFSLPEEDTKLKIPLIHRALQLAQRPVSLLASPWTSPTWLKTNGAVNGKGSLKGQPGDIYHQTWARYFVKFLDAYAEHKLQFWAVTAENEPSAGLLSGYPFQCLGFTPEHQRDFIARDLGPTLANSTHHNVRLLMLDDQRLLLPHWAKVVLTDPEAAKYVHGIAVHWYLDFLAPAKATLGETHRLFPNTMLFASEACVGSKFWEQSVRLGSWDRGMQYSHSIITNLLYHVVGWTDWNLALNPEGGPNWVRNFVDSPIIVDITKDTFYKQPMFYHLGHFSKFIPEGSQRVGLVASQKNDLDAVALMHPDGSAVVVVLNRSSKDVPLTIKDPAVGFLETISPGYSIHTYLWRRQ
In words: Competitive inhibition of human recombinant imiglucerase using 4-methylumbelliferyl-beta-D-glucopyranoside as substrate preincubated for 30 mins at pH 5.2 before substrate addition measured after 10 mins by Lineweaver-Burk or Dixon plot analysis.

In data set [2] the target is T2, Lysosomal acid glucosylceramidase (Homo sapiens) (UniProt P04062).
T2 sequence (whole entry): T1 sequence (P04062 whole entry)
Briefly: Ratio of IC50 for human recombinant imiglucerase at pH 5.2 to IC50 for human recombinant imiglucerase at pH 7.

Data set [3] has as its target Alpha-galactosidase (Coffea arabica) (UniProt Q42656). Briefly: Inhibition of coffee beans alpha-galactosidase at 200 uM.
For data set [4], the target named is T2, Lysosomal acid glucosylceramidase (Homo sapiens). Briefly: Inhibition of imiglucerase in human fibroblasts using 4-methylumbelliferyl-beta-D-glucopyranoside as substrate at 200 uM after 24 hrs.
Another data set concerns Saccharomyces cerevisiae. In words: Inhibition of yeast alpha-glucosidase at 200 uM.
A short description of data set [5]: Cytotoxicity against human fibroblasts up to 300 uM after 24 hrs by MTT assay. Conditions: fibroblast. The data set is classed as cell-based. On the technique in general: Tetrazolium assays rely on reduction of a dye to a coloured formazan, in cell work by metabolically active cells.
For data set [6], the target named is T3, Beta-galactosidase (Bos taurus) (UniProt Q58D55).
T3 sequence (whole entry): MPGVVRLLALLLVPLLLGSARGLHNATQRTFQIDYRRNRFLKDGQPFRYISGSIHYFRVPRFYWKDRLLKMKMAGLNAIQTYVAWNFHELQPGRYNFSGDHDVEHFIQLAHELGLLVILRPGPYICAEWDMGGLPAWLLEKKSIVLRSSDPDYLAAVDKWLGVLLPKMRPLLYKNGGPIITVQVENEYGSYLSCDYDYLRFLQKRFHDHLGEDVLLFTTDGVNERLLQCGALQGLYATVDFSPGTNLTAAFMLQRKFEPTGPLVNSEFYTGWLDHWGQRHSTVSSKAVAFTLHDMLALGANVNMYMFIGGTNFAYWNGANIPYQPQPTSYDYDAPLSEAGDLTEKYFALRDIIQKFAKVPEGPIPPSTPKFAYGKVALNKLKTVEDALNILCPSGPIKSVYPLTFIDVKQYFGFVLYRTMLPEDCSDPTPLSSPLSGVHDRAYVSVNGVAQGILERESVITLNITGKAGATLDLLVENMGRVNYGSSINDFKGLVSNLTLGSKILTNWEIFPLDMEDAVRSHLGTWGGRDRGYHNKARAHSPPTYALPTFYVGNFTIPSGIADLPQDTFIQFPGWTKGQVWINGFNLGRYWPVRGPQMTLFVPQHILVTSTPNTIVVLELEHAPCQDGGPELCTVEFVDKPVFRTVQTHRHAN
In words: Inhibition of bovine liver beta-galactosidase at 200 uM.

The target in data set [7] is T1, Lysosomal acid glucosylceramidase. Briefly: Inhibition of human recombinant imiglucerase using 4-methylumbelliferyl-beta-D-glucopyranoside as substrate preincubated for 30 mins at pH 5.2 before substrate addition measured after 10 mins.
For data set [8] the target is unchanged. In words: Competitive inhibition of human recombinant imiglucerase using 4-methylumbelliferyl-beta-D-glucopyranoside as substrate preincubated for 30 mins at pH 7 before substrate addition measured after 10 mins by Lineweaver-Burk or Dixon plot analysis.
Data set [9] has the same target. Briefly: Inhibition of human recombinant imiglucerase using 4-methylumbelliferyl-beta-D-glucopyranoside as substrate preincubated for 30 mins at pH 7 before substrate addition measured after 10 mins.
Data set [10] addresses T2, Lysosomal acid glucosylceramidase (Homo sapiens). Conditions: 50 uM.
Description: Inhibition of imiglucerase in human fibroblasts using 4-methylumbelliferyl-beta-D-glucopyranoside as substrate at 50 uM after 24 hrs

Alpha-galactosidase (Coffea arabica), sequence (Q42656 16-378 limits assumed): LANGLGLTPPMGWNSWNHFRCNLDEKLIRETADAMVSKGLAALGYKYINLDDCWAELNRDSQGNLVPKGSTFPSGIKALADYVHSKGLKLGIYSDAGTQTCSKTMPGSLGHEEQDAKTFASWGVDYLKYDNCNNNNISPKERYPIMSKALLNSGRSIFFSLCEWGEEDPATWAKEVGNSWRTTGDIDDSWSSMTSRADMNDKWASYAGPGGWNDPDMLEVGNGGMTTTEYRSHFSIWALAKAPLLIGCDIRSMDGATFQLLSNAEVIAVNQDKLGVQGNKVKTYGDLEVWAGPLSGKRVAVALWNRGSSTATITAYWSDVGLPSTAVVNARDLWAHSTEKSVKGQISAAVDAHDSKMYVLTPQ

For the compound `O=C(CCCN[C@H]1[C@H](O)[C@@H](O)[C@H](O)[C@@H](O)[C@@H]1O)NC12CC3CC(CC(C3)C1)C2`, the inhibition constant Ki in data set [1] came out at 183 µM; in data set [8] it was 45 µM. In [2], the Ratio IC50 amounted to 4. For the same compound, the inhibition result (in data set [3]; in the data set on Saccharomyces cerevisiae; in data set [6]) was “inactive” in each case. The inhibition in [4] is 0%. In data set [5], the Activity result is given as “Non-toxic”. Besides, the 50% inhibitory concentration (IC50) in data set [7] is 257 µM; in data set [9] it was 58 µM.
Turning to `CCCCCCCCCN[C@@H]1[C@H](O)[C@H](O)[C@@H](O)[C@H](O)[C@H]1O`, the inhibition in data set [10] was 95%.
On to `O=C(CCCN[C@@H]1[C@H](O)[C@H](O)[C@@H](O)[C@H](O)[C@H]1O)NC12CC3CC(CC(C3)C1)C2`, for which the Ki came to 2.9 µM in data set [1] and 0.25 µM in data set [8]. Moreover, in data set [2], the Ratio IC50 came out at 12. Further, the inhibition result (in data set [3]; with Saccharomyces cerevisiae) was “inactive” throughout. Besides, the inhibition in [4] was 1%; in data set [6], 24%. Also, the Activity entry in [5] is “Non-toxic”. Further, the half-maximal inhibitory concentration (IC50) in [7] came to 5.4 µM; in [9], 0.37 µM.
In data set [10], `CCCCCCCCCN[C@H]1[C@H](O)[C@@H](O)[C@H](O)[C@@H](O)[C@@H]1O` had an inhibition of 29%.

The Ki is a dissociation constant, usually derived from enzyme kinetics or from competition with a known ligand. One may read the inhibition as the change of the read-out against control, counted positive when it falls. As usually defined, the IC50 is the concentration that gives 50% inhibition.

The record behind these values is ChEMBL document CHEMBL3217407, “Adamantane substituted aminocyclitols as pharmacological chaperones for Gaucher disease” (Medchemcomm, 2013).
